Data as given in patent US20210112813A1, “HERBICIDAL COMPOSITION AND USE THEREOF” (NANTONG JIANGSHAN AGROCHEMICAL & CHEMICALS CO., LTD., priority 2019, published 2021).

What was measured:
Format in all cases: in vivo
Lambsquarters [1] = assay: Greenhouse pot test, pre-emergence soil treatment, visual control effect 30 days after treatment, Gowing method
Crabgrass = assay: Field plot test, non-cultivated weeds, pre-emergence soil treatment; details: Table 8, dose 600 ga.i./hm^2
Procedure: (§1) The present application also conducted a medicinal efficacy test on weeds on the formulation examples containing herbicide active component A and active component B by the field plot test method, and clarified the control effect of the composition on non-cultivated weeds.
(§2) According to the different components of different formulation examples, pre-emergence soil treatment, early post-emergence and post-emergence stem and leaf spray treatment were carried out respectively. The spraying device was Singapore Linong HD400 hand-operating knapsack sprayer (No. H17001), working pressure: […], spray rate: 640 mL/min, adjustable cone spraying nozzle (325787), spraying nozzle height: 0.5 m, spray width: 0.85 m, walking speed: about 16.7 m/min, and spray volume: […];

Lambsquarters [2] = assay: as above; details: Table 8, dose 600 ga.i./hm^2
Procedure: as §1, §2

Bristlegrass [3] = assay: as above; details: Table 8, dose 600 ga.i./hm^2
Procedure: as §1, §2

Amaranthusretroflexus [4] = assay: as above; details: Table 8, dose 600 ga.i./hm^2
Procedure: as §1, §2

Bristlegrass [5] = assay: Greenhouse pot test, pre-emergence soil treatment, visual control effect 30 days after treatment, Gowing method
Procedure: (§3) In the present application, indoor combined action of the compound of herbicide active component A and B on weeds was measured to determine the combined effect of the composition on weeds, wherein the structure of the active component A was as follows:
(§4) The weed cultivation method was as follows: quantitative weed seeds abutilon and bristlegrass were respectively sown in a paper cup filled with nutrient soil with a diameter of 7 cm, and then cultivated in the greenhouse after covering the soil, suppressing and watering. The post-emergence stem and leaf treatment was performed when the grass weeds grew to 5-7 leaf stage, broad-leaved weeds grew to 6-8 leaf stage; the pre-emergence soil treatment was performed the second day after sowing, and the early post-emergence treatment was performed after sowing and before emergence; the experiment was repeated 3 times. After the treatment and drug solution naturally dried, the weeds were placed in the greenhouse to be managed according to conventional methods. According to the suppression or death of the weeds, a visual control effect investigation was conducted 30 days after the treatment. The application adopted the Gowing method to evaluate the combined effect of the proposed composition.
(§5) X—Weed control effect when the amount of herbicide component A is P;
(§6) Y—Weed control effect when the amount of herbicide component B is Q;
(§7) E0—Theoretical control effect when the amount of herbicide component A is […];
(§8) E—The measured control effect after the herbicide component A and the herbicide component B are mixed according to the above ratio.
(§9) When E−E0>10%, it is synergism; when E−E0<−10%, it is antagonism; when E−E0 value is between ±10%, it is addition.

Abutilon [6] = assay: Greenhouse pot test (treatment timing not given, Table 6), visual control effect, Gowing method
Procedure: as §3, §4, §5, §6, §7, §8, §9

Bristlegrass [7] = assay: Greenhouse pot test (treatment timing not given, Tables 6 and 7), visual control effect, Gowing method
Procedure: as §3, §4, §5, §6, §7, §8, §9

Abutilon [8] = assay: Field plot test, non-cultivated weeds, post-emergence stem and leaf spray; details: Table 10, dose 100 ga.i./hm^2
Procedure: as §1, §2

Bristlegrass [9] = assay: as above; details: Table 10, dose 100 ga.i./hm^2
Procedure: as §1, §2

Echinochloacrusgalli [10] = assay: as above; details: Table 10, dose 100 ga.i./hm^2
Procedure: as §1, §2

Amaranthusretroflexus [11] = assay: as above; details: Table 10, dose 100 ga.i./hm^2
Procedure: as §1, §2

Abutilon [12] = assay: Greenhouse pot test, post-emergence stem and leaf treatment, visual control effect 30 days after treatment, Gowing method
Procedure: as §3, §4, §5, §6, §7, §8, §9

Bristlegrass [13] = assay: as above
Procedure: as §3, §4, §5, §6, §7, §8, §9

Abutilon [14] = assay: Greenhouse pot test, pre-emergence soil treatment, visual control effect 30 days after treatment, Gowing method
Procedure: as §3, §4, §5, §6, §7, §8, §9

Abutilon [15] = assay: Field plot test, non-cultivated weeds, early post-emergence
Procedure: as §1, §2

Bristlegrass [16] = assay: as above
Procedure: as §1, §2

Echinochloacrusgalli [17] = assay: as above
Procedure: as §1, §2

Amaranthusretroflexus [18] = assay: as above
Procedure: as §1, §2

Amaranthusretroflexus [19] = assay: Greenhouse pot test (treatment timing not given, Table 7), visual control effect, Gowing method

COC[C@H](C)N(C(=O)CCl)c1c(C)csc1C [Dimethoxamid-P]
Measured value E (Lambsquarters [1]; Table 1, dose 75 ga.i./hm^2): 35%
Measured value E (Lambsquarters [1]; Table 1, dose 150 ga.i./hm^2): 50%
Control effect, Crabgrass (Crabgrass): 70
Control effect, Lambsquarters (Lambsquarters [2]): 75
Control effect, Bristlegrass (Bristlegrass [3]): 55
Control effect, Amaranthusretroflexus (Amaranthusretroflexus [4]): 80
Measured value E (Bristlegrass [5]; Table 1, dose 75 ga.i./hm^2): 30%
Measured value E (Bristlegrass [5]; Table 1, dose 150 ga.i./hm^2): 55%

COCC(C)N(C(=O)CCl)c1c(C)csc1C (stereo not shown) [Dimethoxamide]
Measured value E (Lambsquarters [1]; Table 1, dose 75 ga.i./hm^2): 20%
Measured value E (Lambsquarters [1]; Table 1, dose 150 ga.i./hm^2): 35%
Control effect, Crabgrass (Crabgrass): 70
Control effect, Lambsquarters (Lambsquarters [2]): 70
Control effect, Bristlegrass (Bristlegrass [3]): 50
Control effect, Amaranthusretroflexus (Amaranthusretroflexus [4]): 55
Measured value E (Bristlegrass [5]; Table 1, dose 75 ga.i./hm^2): 25%
Measured value E (Bristlegrass [5]; Table 1, dose 150 ga.i./hm^2): 40%

CP(=O)(O)CC[C@H](N)C(=O)O.N [Glufosinate-P-ammonium]
Measured value E (Abutilon [6]; dose 30 ga.i./hm^2): 45%
Measured value E (Abutilon [6]; dose 120 ga.i./hm^2): 65%
Measured value E (Bristlegrass [7]; Table 6, dose 30 ga.i./hm^2): 40%
Measured value E (Bristlegrass [7]; Table 6, dose 120 ga.i./hm^2): 65%
Control effect, Abutilon (Abutilon [8]): 70
Control effect, Bristlegrass (Bristlegrass [9]): 45
Control effect, Echinochloacrusgalli (Echinochloacrusgalli [10]): 60
Control effect, Amaranthusretroflexus (Amaranthusretroflexus [11]): 80

CP(=O)(O)CCC(N)C(=O)O (stereo not shown) [Glufosinate-ammonium]
Measured value E (Abutilon [6]; dose 30 ga.i./hm^2): 40%
Measured value E (Abutilon [6]; dose 120 ga.i./hm^2): 60%
Measured value E (Bristlegrass [7]; Table 6, dose 30 ga.i./hm^2): 30%
Measured value E (Bristlegrass [7]; Table 6, dose 120 ga.i./hm^2): 55%
Control effect, Abutilon (Abutilon [8]): 65
Control effect, Bristlegrass (Bristlegrass [9]): 50
Control effect, Echinochloacrusgalli (Echinochloacrusgalli [10]): 60
Control effect, Amaranthusretroflexus (Amaranthusretroflexus [11]): 70

CCc1cnc(C2=NC(C)(C(C)C)C(=O)N2)c(C(=O)O)c1 (stereo not shown) [Imazethapyr]
Measured value E (Abutilon [12]; Table 5, dose 22.5 ga.i./hm^2): 10%
Measured value E (Abutilon [12]; Table 5, dose 45 ga.i./hm^2): 20%
Measured value E (Bristlegrass [13]; Table 5, dose 22.5 ga.i./hm^2): 45%
Measured value E (Bristlegrass [13]; Table 5, dose 45 ga.i./hm^2): 50%
Measured value E (Abutilon [14]; Table 4, dose 45 ga.i./hm^2): 5%
Measured value E (Abutilon [14]; Table 4, dose 90 ga.i./hm^2): 25%
Measured value E (Bristlegrass [5]; Table 4, dose 45 ga.i./hm^2): 30%
Measured value E (Bristlegrass [5]; Table 4, dose 90 ga.i./hm^2): 45%
Control effect, Abutilon (Abutilon [15]; Table 9, dose 100 ga.i./hm^2): 45
Control effect, Bristlegrass (Bristlegrass [16]; Table 9, dose 100 ga.i./hm^2): 50
Control effect, Echinochloacrusgalli (Echinochloacrusgalli [17]; Table 9, dose 100 ga.i./hm^2): 60
Control effect, Amaranthusretroflexus (Amaranthusretroflexus [18]; Table 9, dose 100 ga.i./hm^2): 70

CCOc1cc(Oc2ccc(C(F)(F)F)cc2Cl)ccc1[N+](=O)[O-] [Oxyfluorfen]
Measured value E (Amaranthusretroflexus [19]; dose 22.5 ga.i./hm^2): 30%
Measured value E (Amaranthusretroflexus [19]; dose 45 ga.i./hm^2): 60%
Measured value E (Bristlegrass [7]; Table 7, dose 22.5 ga.i./hm^2): 15%
Measured value E (Bristlegrass [7]; Table 7, dose 45 ga.i./hm^2): 50%
Control effect, Abutilon (Abutilon [8]): 80
Control effect, Bristlegrass (Bristlegrass [9]): 65
Control effect, Echinochloacrusgalli (Echinochloacrusgalli [10]): 85
Control effect, Amaranthusretroflexus (Amaranthusretroflexus [11]): 80

Cn1nc(C(F)(F)F)c(CS(=O)(=O)C2=NOC(C)(C)C2)c1OC(F)F [Pyroxasulfone]
Measured value E (Abutilon [12]; Table 5, dose 45 ga.i./hm^2): 50%
Measured value E (Abutilon [12]; Table 5, dose 90 ga.i./hm^2): 65%
Measured value E (Bristlegrass [13]; Table 5, dose 45 ga.i./hm^2): 70%
Measured value E (Bristlegrass [13]; Table 5, dose 90 ga.i./hm^2): 85%
Measured value E (Abutilon [14]; Table 4, dose 90 ga.i./hm^2): 40%
Measured value E (Abutilon [14]; Table 4, dose 180 ga.i./hm^2): 55%
Measured value E (Bristlegrass [5]; Table 4, dose 90 ga.i./hm^2): 60%
Measured value E (Bristlegrass [5]; Table 4, dose 180 ga.i./hm^2): 75%
Control effect, Abutilon (Abutilon [15]; Table 9, dose 200 ga.i./hm^2): 30
Control effect, Bristlegrass (Bristlegrass [16]; Table 9, dose 200 ga.i./hm^2): 35
Control effect, Echinochloacrusgalli (Echinochloacrusgalli [17]; Table 9, dose 200 ga.i./hm^2): 15
Control effect, Amaranthusretroflexus (Amaranthusretroflexus [18]; Table 9, dose 200 ga.i./hm^2): 60

CCc1cccc(C)c1N(C(=O)CCl)[C@@H](C)COC [S-metolachlor]
Measured value E (Lambsquarters [1]; Table 2, dose 90 ga.i./hm^2): 45%
Measured value E (Lambsquarters [1]; Table 2, dose 135 ga.i./hm^2): 65%
Control effect, Crabgrass (Crabgrass): 70
Control effect, Lambsquarters (Lambsquarters [2]): 50
Control effect, Bristlegrass (Bristlegrass [3]): 60
Control effect, Amaranthusretroflexus (Amaranthusretroflexus [4]): 75
Measured value E (Bristlegrass [5]; Table 2, dose 90 ga.i./hm^2): 35%
Measured value E (Bristlegrass [5]; Table 2, dose 135 ga.i./hm^2): 60%

CCc1cccc(C)c1N(C(=O)CCl)C(C)COC (stereo not shown) [metolachlor]
Measured value E (Lambsquarters [1]; Table 2, dose 90 ga.i./hm^2): 50%
Measured value E (Lambsquarters [1]; Table 2, dose 135 ga.i./hm^2): 55%
Control effect, Crabgrass (Crabgrass): 60
Control effect, Lambsquarters (Lambsquarters [2]): 50
Control effect, Bristlegrass (Bristlegrass [3]): 45
Control effect, Amaranthusretroflexus (Amaranthusretroflexus [4]): 60
Measured value E (Bristlegrass [5]; Table 2, dose 90 ga.i./hm^2): 40%
Measured value E (Bristlegrass [5]; Table 2, dose 135 ga.i./hm^2): 60%

Acetofluran
Measured value E (Amaranthusretroflexus [19]; dose 60 ga.i./hm^2): 35%
Measured value E (Amaranthusretroflexus [19]; dose 90 ga.i./hm^2): 55%
Measured value E (Bristlegrass [7]; Table 7, dose 60 ga.i./hm^2): 5%
Measured value E (Bristlegrass [7]; Table 7, dose 90 ga.i./hm^2): 30%
Control effect, Abutilon (Abutilon [8]): 75
Control effect, Bristlegrass (Bristlegrass [9]): 55
Control effect, Echinochloacrusgalli (Echinochloacrusgalli [10]): 70
Control effect, Amaranthusretroflexus (Amaranthusretroflexus [11]): 75
